Patent US11957761B2, “Compounds having α4β7 integrin inhibition activity” (priority 2021, dated 2024)

Legend:
[1] = Pharmacokinetics in rats, single i.v. bolus (Example 11); type: in vivo, Sprague Dawley or Wistar rats; details: male, plasma, iv, rat, 511 nmol/kg
Protocol: Sprague Dawley or Wistar rats (males with a body weight of approximately 250-350 g) were given a single intravenous (i.v. bolus) injection of the peptide to be tested. […] At each sampling time point, samples from the rats were drawn by tail cut. The dosing vehicle was 20 mM phosphate buffer, 260 mM mannitol, pH 7.

in vivo [2] = details: male, rat, plasma, iv, 510 nmol/kg
Protocol: Sprague Dawley or Wistar rats (males with a body weight of approximately 250-350 g) were given a single intravenous (i.v. bolus) injection of the peptide to be tested. Following i.v. administration of compound 1 (dose 510 nmol/kg, dosing volume […]), blood samples were drawn at 10 min, 15 min, 40 min, 1 h, 2 h, 4 h, 8 h, 24 h post-dose. At each sampling time point, samples from the rats were drawn by tail cut. The dosing vehicle was 20 mM phosphate buffer, 260 mM mannitol, pH 7.
(§1) Plasma samples were analyzed after protein precipitation by liquid chromatography mass spectrometry (LC-MS/MS). Individual plasma concentrations were used for calculation of the pharmacokinetic parameters using the non-compartmental approach in Phoenix WinNonlin 8.3 or a later version. Plasma terminal elimination half-life (T½) was determined as ln(2)/λz where λz is the magnitude of the slope of the log linear regression of the log concentration versus time profile during the terminal phase. AUCinf is the area under the plasma concentration−time curve extrapolated to infinity (AUCinf=AUClast+Clast/λz, where Clast is the last observed plasma concentration). C0 is the plasma concentration at the dosing time intercept and is back extrapolated by log-linear regression of the first two data points.

Integrin α4β7-MAdCAM-1 = Integrin α4β7-MAdCAM-1 (Homo sapiens, UniProt P13612+P26010); assay: cell-based
Sequence of Integrin α4β7-MAdCAM-1 (P13612 34-1032): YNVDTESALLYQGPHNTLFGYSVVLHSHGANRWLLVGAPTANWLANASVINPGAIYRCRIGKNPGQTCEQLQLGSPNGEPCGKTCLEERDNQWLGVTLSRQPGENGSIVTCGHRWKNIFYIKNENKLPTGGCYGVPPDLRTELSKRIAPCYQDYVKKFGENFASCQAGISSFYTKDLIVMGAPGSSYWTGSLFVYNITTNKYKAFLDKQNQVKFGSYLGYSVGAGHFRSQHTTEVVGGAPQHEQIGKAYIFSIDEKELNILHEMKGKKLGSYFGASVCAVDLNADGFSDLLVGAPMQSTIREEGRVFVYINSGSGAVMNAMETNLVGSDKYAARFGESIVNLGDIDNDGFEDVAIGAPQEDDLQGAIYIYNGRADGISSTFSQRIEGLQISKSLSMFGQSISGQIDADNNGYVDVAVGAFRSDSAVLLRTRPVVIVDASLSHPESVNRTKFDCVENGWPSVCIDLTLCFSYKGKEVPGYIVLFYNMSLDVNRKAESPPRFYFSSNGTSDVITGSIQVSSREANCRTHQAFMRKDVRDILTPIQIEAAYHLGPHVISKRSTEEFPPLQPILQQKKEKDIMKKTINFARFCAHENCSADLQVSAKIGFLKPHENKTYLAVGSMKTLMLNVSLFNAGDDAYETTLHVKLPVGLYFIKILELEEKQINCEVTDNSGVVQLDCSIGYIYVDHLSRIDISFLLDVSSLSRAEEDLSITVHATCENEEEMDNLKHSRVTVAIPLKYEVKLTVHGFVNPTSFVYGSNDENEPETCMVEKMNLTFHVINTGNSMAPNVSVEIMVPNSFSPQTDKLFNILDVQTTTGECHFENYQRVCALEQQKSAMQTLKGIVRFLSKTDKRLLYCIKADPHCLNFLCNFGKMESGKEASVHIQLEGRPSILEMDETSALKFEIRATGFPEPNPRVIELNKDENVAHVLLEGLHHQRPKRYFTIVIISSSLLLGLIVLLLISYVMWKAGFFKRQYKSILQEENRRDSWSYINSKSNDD
Sequence of Integrin α4β7-MAdCAM-1 (P26010 20-798): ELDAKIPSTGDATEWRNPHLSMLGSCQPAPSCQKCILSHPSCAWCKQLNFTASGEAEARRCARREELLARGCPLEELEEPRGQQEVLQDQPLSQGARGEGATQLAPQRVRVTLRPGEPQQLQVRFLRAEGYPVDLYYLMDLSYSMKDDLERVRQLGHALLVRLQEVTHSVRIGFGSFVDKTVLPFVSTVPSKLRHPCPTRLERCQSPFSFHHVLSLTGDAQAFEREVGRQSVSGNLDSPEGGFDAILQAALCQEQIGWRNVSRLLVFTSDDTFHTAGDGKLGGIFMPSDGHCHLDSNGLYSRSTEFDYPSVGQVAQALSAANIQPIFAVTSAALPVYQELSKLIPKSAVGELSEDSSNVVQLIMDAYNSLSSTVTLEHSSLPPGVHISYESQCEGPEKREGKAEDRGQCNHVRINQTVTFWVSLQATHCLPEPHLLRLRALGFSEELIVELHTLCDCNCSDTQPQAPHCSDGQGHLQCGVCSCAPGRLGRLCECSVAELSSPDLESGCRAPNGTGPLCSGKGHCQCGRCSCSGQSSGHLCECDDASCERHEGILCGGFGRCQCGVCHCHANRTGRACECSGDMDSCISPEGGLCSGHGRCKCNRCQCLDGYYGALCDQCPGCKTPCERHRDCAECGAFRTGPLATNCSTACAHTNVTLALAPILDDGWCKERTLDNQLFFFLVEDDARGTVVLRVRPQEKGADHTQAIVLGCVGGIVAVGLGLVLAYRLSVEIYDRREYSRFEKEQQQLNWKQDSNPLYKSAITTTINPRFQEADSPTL
Protocol: Recombinant human MAdCAM-1 (rhMAdCAM-1) was obtained from R&D systems (Cat #6056-MC-050).
Binding buffer (1.5 mM CaCl2, 1 mM MnCl2, 100 mM NaCl, 50 mM TRIS-HCl (pH 7.5)
Cells: The human B lymphocyte cell line RPMI 8866 was obtained from Merck via ECACC (European collection of authenticated cell cultures) (Cat #95041316 and lot #14G012).
Day 0: RPMI 8866 cells were split to a concentration of 500.000 cells/mL.
A Maxisorp plate was coated with 100 μL/well of 1 μg/mL rhMAdCAM-1 in coating buffer. Plate was sealed with TopSeal A plus and incubated at 4° C. overnight.
Day 1: The plate was washed twice with 150 μL wash buffer and then blocked with 250 μL/well blocking buffer (1% BSA in PBS) for one hour at room temperature. CFSE Celltrace stock solution was prepared immediately prior to use by adding 18 μL of DMSO to one vial of CellTrace™ reagent and mixing well. […]
The cells were pelleted by centrifugation and resuspended in fresh pre-warmed complete culture medium and the cells were counted. […]
After the last wash, 100 μL of PBS (without Mg^2+ and Ca^2+) was added to each well and the fluorescence was read (Ex485/Em535) using a plate reader (Envision 2105 Multimode plate reader). To calculate the concentration response, the fluorescence value of control wells not containing cells was subtracted from each test well.
IC50 values were calculated using 4-parameter nonlinear fit of the data.

in vivo [3] = details: male, Beagle, dog, plasma, sc
Protocol: Beagle dogs (males with a body weight of approximately 10-12 kg) were given a single subcutaneous (s.c.) injection of the peptides to be tested. Following s.c. administration of the selected compounds (dose 10, 20, 50, 100, 200 and 400 μg/kg), dosing volume 0.1 m/kg, blood samples were drawn at 0, 3, 6, 8, 12, 24, 48, 72, 96, 120, 144, 168, 192, 216, 240, 264, 288, 312, 336, 576, 744, 936, 1104 and 1272 hours.
Blood was sampled through a venflon on day 1 (excluding the 8-hour timepoint). At the 8-hour sampling time, and the sampling timepoints hereafter, the blood was be sampled through v. jugularis with a vacutainer and vacutainer needle. The dosing vehicle was PBS buffer, pH 7.
as §1, with “is” for “is the plasma concentration at the dosing time intercept and is”

[4] = Pharmacokinetics in Beagle dogs, single s.c. and i.v. injection (Example 5); type: in vivo; details: male, plasma, 200 ug/kg, dog
Text: The dosing vehicle was PBS buffer, pH 7.

## CC[C@H](C)[C@@H]1NC(=O)[C@H](CC(=O)O)NC(=O)[C@H](CC(C)C)NC(=O)c2ccc(-c3ccc(N4CCN(C(=O)c5ccccc5-c5ccccc5C(=O)N5CCN(c6ccc(-c7ccc8cc7CNC(=O)[C@@H]7CCCN7[C@H](C(=O)NC(C)(C)C)[C@H](C)NC(=O)[C@H]([C@@H](C)CC)NC(=O)[C@H](CC(=O)O)NC(=O)[C@H](CC(C)C)NC8=O)cc6)CC5)CC4)cc3)c(c2)CNC(=O)[C@@H]2CCCN2[C@H](C(=O)NC(C)(C)C)[C@H](C)NC1=O [Compound 1, 2,2′-((S,S,S,S,S,S,12S,8S, 11S,14S,17S,18S)-((([1,1′-biphenyl]-2,2′-dicarbonyl)bis(piperazine-4,1-diyl))bis(4,1-phenylene))bis(14-((S)-sec-butyl)-18-(tert-butylcarbamoyl)-8-isobutyl-17-methyl-2,6,9,12,15-pentaoxo-3,7,10,13,16-pentaaza-1(2,1)-pyrrolidina-5(1,3)-benzenacyclooctadecaphane-56,11-diyl))diacetic acid]
[1]
  AUC(0-inf): 34 µM·h
  C0: 9.02 µM
  half-life: 473 min
In vivo [2]
  AUC(0-inf): 32.2 µM·h
  half-life: 337 min
Integrin α4β7-MAdCAM-1
  IC50: 35 nM
In vivo [3]; 10 ug/kg
  AUC(0-inf): 2.46 µM·h
  Cmax: 18.1 nM
  Tmax: 20 h
  half-life: 14.2 days
In vivo [3]; 20 ug/kg
  AUC(0-inf): 5.68 µM·h
  Cmax: 43.1 nM
  Tmax: 20 h
  half-life: 19.2 days
In vivo [3]; 50 ug/kg
  AUC(0-inf): 11.6 µM·h
  Cmax: 102 nM
  Tmax: 20 h
  half-life: 14.2 days
In vivo [3]; 100 ug/kg
  AUC(0-inf): 58.6 µM·h
  Cmax: 504 nM
  Tmax: 20 h
  half-life: 9.58 days
In vivo [3]; 200 ug/kg
  AUC(0-inf): 72.5 µM·h
  Cmax: 417 nM
  Tmax: 20 h
  half-life: 9.58 days
In vivo [3]; 400 ug/kg
  AUC(0-inf): 158 µM·h
  Cmax: 927 nM
  Tmax: 20 h
  half-life: 10.8 days
[4]; IV
  AUC(0-inf): 19.3 µM·h
  Cmax: 743 nM
  half-life: 2.21 days
[4]; SC
  AUC(0-inf): 21.8 µM·h
  Cmax: 127 nM
  half-life: 3.97 days
